Measured values reported in paper PMC6916019, “In vitro anti-malarial efficacy of chalcones: cytotoxicity profile, mechanism of action and their effect on erythrocytes” (Malaria Journal, 2019).
≈ marks a conversion by molar mass, not a printed value.

Legend:
[1] = test system: P. falciparum chloroquine sensitive strain (MRC-2); assay: microbe, parasite or virus in culture
Method: (§1) These strains were perpetuated in vitro in continuous culture according to the method of Trager and Jensen with slight modifications. Briefly, both sensitive and resistant strains of P. falciparum were maintained in A+ erythrocytes in RPMI-1640 medium (having glutamine, but without any sodium bicarbonate) comprising 1.00 g of dextrose, 5.94 g of HEPES buffer, 40.00 mg of gentamycin. Additionally supplemented with 5% sodium bicarbonate and 10% (v/v) inactivated human AB+ serum then incubated in gas mixture of 5% CO2, 5% O2 and 90% N2 at 37 °C. Parasitized erythrocytes at initial 5% haematocrit were suspended in above mentioned culture medium and parasitaemia was regularly checked to maintain level between 2 and 4% with further sub-culturing for parasitaemia beyond 5%. Growth and multiplication of parasite was monitored by microscopy using Giemsa-stained slides.
(§2) To obtain ring stages of the parasite, the cultures were synchronized using D-sorbitol. The cultures, with majority of ring stages, were treated with equal volume of aqueous 5% D-sorbitol for 5 min and then after centrifugation pellet were suspended in complete medium and fresh erythrocytes synchronized culture with 1% parasitaemia and 5% haematocrit were used for compound concentration response assay.
(§3) The concentration of each test compound needed to hinder multiplication of parasites by 50% (IC50) against P. falciparum strains were obtained through concentration response assay performed in 96-well sterile tissue culture plates. Synchronized parasite cultures were applied to different doses of each compound. Dilutions were performed in gentamycin-free culture medium, and incubated at 37 °C having gaseous mixture (5% CO2, 5% O2 and 90% N2) supply for 24 h. The results were expressed as IC50 values computed from HN-NonLin Regression analysis, as well as mean percentage inhibition ± standard error examined by thick smear Giemsa stained slides. %ParasiteInhibition29,30=100-TotalnumberofSchizontsintestwells/TotalnumberofSchizontsincontrolwell∗100
(§4) Parasite at ring stage was used for compound concentration response assay with parasitaemia of 1% at 5% haematocrit. […] The IC50 and IC90 values of all compounds were determined and the resistance index between the two sensitive and resistant strains was calculated (Table 2). […] The percentage inhibition in schizont maturation was also calculated after incubation of ring stage P. falciparum till 24 h at the same range of drug concentrations (Table 3).

[2] = test system: haemozoin (β-haematin) production in P. falciparum cultures; assay: Haemozoin inhibition assay in P. falciparum cultures; format: cell-based, Plasmodium falciparum; conditions: drug near IC50 concentration, 48 h, untreated control 547.61 ± 9.52
Method: Briefly, the test cultures were centrifuged for 5–10 min at 1300 rpm to dispose of the culture medium. Infected erythrocyte pellet (mingled of β-haematin and erythrocyte membrane) were exposed to 0.01% saponin lysis for 10 min at 25 °C to lyse erythrocyte to release parasites. […] The haemozoin content was quantified by taking the absorbance at 400 nm and using a standard curve prepared from β-haematin. The amount of haemozoin formed in relation to control was calculated. All assays were performed in triplicate.

[3] = MTT cytotoxicity / cell viability assay; conditions: human
Method: (§5) Cytotoxicity of the compounds on mammalian cells were accomplished employing HeLa cell line (NCCS, Pune) cultured in DMEM supplemented with 10% FBS by the MTT (3-(4,5-dimethylthiazol-2-yl)-2,5-diphenyltetrazolium bromide) microenzymatic method with certain modifications [32]. Briefly, cells (10^4 cells/200 μL/well) were seeded into 96-well flat-bottom sterile tissue culture plates in complete medium. After 24 h of seeding, the test compounds at different dilutions were added and kept for another 24 h in a humidified chamber with 5% CO2 at 37 °C. Twenty microlitres of MTT (5.00 mg/mL in 1XPBS) stock solution were pipetted into each well, mixed and incubated for at least 3–4 h. After incubation, the plates were centrifuged at 1500 rpm for 5 min. The supernatant was disposed cautiously and 100 μL of DMSO were added to each well to lyse the cell and dissolve the insoluble purple formazan product into a coloured solution. Absorbance was taken at 570 nm to determine formazan formation as a measurement of cell viability. Experiments were performed in triplicate.

[4] = Haemolysis assay on normal erythrocytes
Method: (§6) Briefly, fresh erythrocytes were centrifuged for 5 min at 1600 rpm for at least thrice in PBS and then the remaining pellet was re-suspended in PBS at 2% hematocrit. One hundred microlitres of this suspended pellet was added to 96-well sterile culture plate having test compounds at different desired concentrations. PBS alone (for baseline values) and 0.4% Triton X-100 in PBS (for 100% haemolysis) were employed as controls. After keeping at 37 °C for 3 h, the test samples were centrifuged and the supernatant was used for determination of the haemolytic activity quantified in terms of haemoglobin release as monitored spectrophotometrically by taking absorbance at 415 nm [33]. The experiment was done in triplicate and the mean ± SD was calculated [33, 34]. %Haemolysis=[Absorbanceofsample415nm-Absorbanceofblanksample415nm/Absorbanceofpositivecontrol415nm]∗100

[5] = test system: P. falciparum chloroquine resistant strain (RKL-9); assay: WHO Mark III schizont maturation inhibition assay, chloroquine resistant strain; format: cell-based, Plasmodium falciparum; conditions: for Selective index (SI) P.falciparum chloroquine^R (RKL-9): SI = CC50 (HeLa)/IC50 (RKL-9)
Method: as §1, §2, §3, §4

HeLa cell line = assay: MTT cytotoxicity / cell viability assay; conditions: MTT, 24 h, not in table head
Method: as §5

normal erythrocytes = assay: Haemolysis assay on normal erythrocytes; conditions: Conc. = 12.5 μg/mL, 3 h, 37 °C
Method: as §6

Plasmodium = conditions: comparison value, reference not given; cited from earlier work
[6] = schizont maturation, 24 h, ring stage

Method for in vitro: as §6

CCN(CC)CCCC(C)Nc1ccnc2cc(Cl)ccc12 (centres unmarked) [CHL, chloroquine, reference compound]
inhibition at 6.25 µg/mL ([1]; Plasmodium falciparum, 24 h, read-out: % Schizont maturation inhibition ± SD (MRC-2)): 88.39 ± 0.71%
IC50 ([1]; Plasmodium falciparum, 24 h, read-out: P. falciparum Chloroquine^s Strain (MRC-2) IC50): 0.17 µg/mL (≈ 0.531 µM)
IC90 ([1]; Plasmodium falciparum, 24 h, read-out: P. falciparum Chloroquine^s Strain (MRC-2) IC90): 1.14 µg/mL (≈ 3.56 µM)
Amount of haemozoin production [2]: 359.52 ± 2.38 ng/mL
Amount of haemozoin production ([2]; listed as chloroquine): 359.52 ± 2.38 ng/mL
viability at 24 h, 12.5 µg/mL [3]: 58 ± 0.06%
hemolysis at 3 h, 12.5 μg/mL [4]: 0.86 ± 0.001%

O=C(/C=C/c1cc2ccccc2[nH]1)c1ccc(Cl)cc1 [Chalcone 9]
% Schizont maturation inhibition ± SD (MRC-2) ([1]; Conc. = 6.25 μg/mL, 24 h): 50.32 ± 33.23%
Selective index (SI) P.falciparum chloroquine^s (MRC-2) ([1]; SI = CC50 (HeLa)/IC50 (MRC-2)): 6.60
P. falciparum Chloroquine^s Strain (MRC-2) IC50 [1, 6]: 0.25 µg/mL
P. falciparum Chloroquine^s Strain (MRC-2) IC90 [1, 6]: 0.96 µg/mL
% Schizont maturation inhibition ± SD (RKL-9) ([5]; Conc. = 6.25 μg/mL, 24 h): 48.87 ± 25.46%
Selective index (SI) P.falciparum chloroquine^R (RKL-9) [5]: 7.85
Resistance Index (RI) IC50 (RKL-9)/IC50 (MRC-2) ([5]; ratio of IC50 resistant / sensitive strain): 0.84
P. falciparum Chloroquine^R Strain (RKL-9) IC50 [5, 6]: 0.21 µg/mL
P. falciparum Chloroquine^R Strain (RKL-9) IC90 [5, 6]: 0.95 µg/mL
HeLa Cell CC50 (HeLa cell line): 1.65 µg/mL
% Hemolysis ± SD (normal erythrocytes): 1.30 ± 0.009%

C=CC(C)(C)c1cc(/C=C/C(=O)c2ccc(O)cc2)c(OC)cc1O [licochalcone]
IC50 of licochalcone (Plasmodium): 1.43 µg/mL

C[C@@H]1CC[C@H]2[C@@H](C)C(=O)O[C@@H]3O[C@@]4(C)CC[C@@H]1[C@]32OO4 [ART, artemisinin, reference compound]
IC50 ([5]; Plasmodium falciparum, read-out: P. falciparum Chloroquine^R Strain (RKL-9) IC50, artemisinin, unit ng/mL): 0.15 ng/mL (≈ 0.000531 µM)
IC90 ([5]; Plasmodium falciparum, read-out: P. falciparum Chloroquine^R Strain (RKL-9) IC90, artemisinin, unit ng/mL): 0.15 ng/mL (≈ 0.000531 µM)
inhibition at 0.00625 µg/mL ([5]; Plasmodium falciparum, artemisinin, Conc. = 6.25 ng/mL, 24 h, read-out: % Schizont maturation inhibition ± SD (RKL-9)): 87.9 ± 2.12%
Selective index (SI) P.falciparum chloroquine^R (RKL-9) [5]: 327.4
hemolysis at 3 h, 12.5 ng/mL (in vitro): 1.94 ± 0.026%
CC50 at 24 h ([3]; HeLa cells): 0.0491 µg/mL (≈ 0.174 µM)
viability at 24 h, 12.5 ng/mL ([3]; HeLa cells): 58.92 ± 0.06%
